Laboratory results published in paper PMC10174618, “Monoterpenoid aryl hydrocarbon receptor allosteric antagonists protect against ultraviolet skin damage in female mice” (Nature Communications, 2023).

Legend:
Test in all cases: biochemical
Design in all cases: KINOMEscan scanMAX active site-directed competition binding assay, percent of control, 468 kinases
Conditions in all cases: competition binding, percent of control
[1] = molecular target: T1, BIKE (Homo sapiens, UniProt Q9NSY1)
T1 construct: gene BMP2K
How it was run: (§1)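 KINOMEscan active site-directed competition binding assay against 468 human kinases with 100 μM S-carvone. Binding expressed as % of control, with 35% of control as the inhibition threshold.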

[2] = molecular target: T2, BRK (Homo sapiens, UniProt Q13882)
T2 construct: gene PTK6
How it was run: as §1

[3] = molecular target: CAMKK2 (Homo sapiens, UniProt Q96RR4)
Chain of CAMKK2 (Q96RR4 whole entry): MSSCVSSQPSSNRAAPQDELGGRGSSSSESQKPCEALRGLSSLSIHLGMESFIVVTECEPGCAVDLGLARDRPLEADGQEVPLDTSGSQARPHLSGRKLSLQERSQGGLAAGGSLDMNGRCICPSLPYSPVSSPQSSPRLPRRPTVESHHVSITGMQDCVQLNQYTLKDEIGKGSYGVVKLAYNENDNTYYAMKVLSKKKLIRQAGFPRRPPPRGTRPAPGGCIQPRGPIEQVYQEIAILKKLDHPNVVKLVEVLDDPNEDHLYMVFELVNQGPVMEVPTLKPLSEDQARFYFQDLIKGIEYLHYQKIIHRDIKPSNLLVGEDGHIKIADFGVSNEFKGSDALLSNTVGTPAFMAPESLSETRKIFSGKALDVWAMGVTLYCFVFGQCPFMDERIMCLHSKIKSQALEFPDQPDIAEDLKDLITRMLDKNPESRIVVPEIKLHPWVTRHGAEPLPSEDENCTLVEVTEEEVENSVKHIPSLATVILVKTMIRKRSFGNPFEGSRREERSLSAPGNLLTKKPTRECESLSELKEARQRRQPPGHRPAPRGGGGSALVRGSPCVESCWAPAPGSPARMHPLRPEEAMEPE
How it was run: as §1

[4] = molecular target: CDK3 (Homo sapiens, UniProt Q00526)
How it was run: as §1

[5] = molecular target: CLK4 (Homo sapiens, UniProt Q9HAZ1)
How it was run: as §1

[6] = molecular target: EGFR(G719S) (Homo sapiens, UniProt P00533, G719S)
How it was run: as §1

[7] = molecular target: T3, FAK (Homo sapiens, UniProt Q05397)
T3 construct: gene PTK2
T3 sequence (Q05397 whole entry): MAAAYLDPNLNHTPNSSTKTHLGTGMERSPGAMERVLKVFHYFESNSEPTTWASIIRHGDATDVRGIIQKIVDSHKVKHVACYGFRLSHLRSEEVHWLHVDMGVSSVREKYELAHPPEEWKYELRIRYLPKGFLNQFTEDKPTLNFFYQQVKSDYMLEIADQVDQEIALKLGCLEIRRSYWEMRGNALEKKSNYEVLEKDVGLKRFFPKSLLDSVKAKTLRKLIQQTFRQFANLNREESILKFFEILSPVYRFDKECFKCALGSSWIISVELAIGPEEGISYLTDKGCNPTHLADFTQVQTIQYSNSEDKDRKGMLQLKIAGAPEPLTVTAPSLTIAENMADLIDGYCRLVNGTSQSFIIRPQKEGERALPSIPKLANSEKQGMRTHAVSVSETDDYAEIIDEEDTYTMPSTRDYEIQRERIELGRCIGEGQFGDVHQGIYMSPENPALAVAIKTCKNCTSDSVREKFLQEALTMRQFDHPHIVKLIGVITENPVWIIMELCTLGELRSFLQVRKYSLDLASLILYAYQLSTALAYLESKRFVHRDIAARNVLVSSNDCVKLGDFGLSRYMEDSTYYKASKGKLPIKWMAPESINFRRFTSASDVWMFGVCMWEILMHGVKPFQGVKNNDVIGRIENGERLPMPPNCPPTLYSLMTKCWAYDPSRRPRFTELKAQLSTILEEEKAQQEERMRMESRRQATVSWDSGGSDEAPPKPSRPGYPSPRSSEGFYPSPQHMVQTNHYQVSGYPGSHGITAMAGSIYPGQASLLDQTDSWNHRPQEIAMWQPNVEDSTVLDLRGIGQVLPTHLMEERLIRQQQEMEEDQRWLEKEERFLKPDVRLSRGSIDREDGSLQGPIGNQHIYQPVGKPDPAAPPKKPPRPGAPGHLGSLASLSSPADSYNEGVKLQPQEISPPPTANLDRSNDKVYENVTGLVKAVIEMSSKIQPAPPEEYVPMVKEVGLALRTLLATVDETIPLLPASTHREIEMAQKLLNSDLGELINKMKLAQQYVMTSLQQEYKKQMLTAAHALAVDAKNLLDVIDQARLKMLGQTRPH
How it was run: as §1

[8] = molecular target: T4, JAK1(JH2domain-pseudokinase) (Homo sapiens, UniProt P23458)
T4 construct: JH2domain-pseudokinase
How it was run: as §1

[9] = molecular target: LCK (Homo sapiens, UniProt P06239)
How it was run: as §1

[10] = molecular target: MAST1 (Homo sapiens, UniProt Q9Y2H9)
How it was run: as §1

[11] = molecular target: MET(M1250T) (Homo sapiens, UniProt P08581, M1250T)
Chain of MET(M1250T) (P08581 whole entry M1250T): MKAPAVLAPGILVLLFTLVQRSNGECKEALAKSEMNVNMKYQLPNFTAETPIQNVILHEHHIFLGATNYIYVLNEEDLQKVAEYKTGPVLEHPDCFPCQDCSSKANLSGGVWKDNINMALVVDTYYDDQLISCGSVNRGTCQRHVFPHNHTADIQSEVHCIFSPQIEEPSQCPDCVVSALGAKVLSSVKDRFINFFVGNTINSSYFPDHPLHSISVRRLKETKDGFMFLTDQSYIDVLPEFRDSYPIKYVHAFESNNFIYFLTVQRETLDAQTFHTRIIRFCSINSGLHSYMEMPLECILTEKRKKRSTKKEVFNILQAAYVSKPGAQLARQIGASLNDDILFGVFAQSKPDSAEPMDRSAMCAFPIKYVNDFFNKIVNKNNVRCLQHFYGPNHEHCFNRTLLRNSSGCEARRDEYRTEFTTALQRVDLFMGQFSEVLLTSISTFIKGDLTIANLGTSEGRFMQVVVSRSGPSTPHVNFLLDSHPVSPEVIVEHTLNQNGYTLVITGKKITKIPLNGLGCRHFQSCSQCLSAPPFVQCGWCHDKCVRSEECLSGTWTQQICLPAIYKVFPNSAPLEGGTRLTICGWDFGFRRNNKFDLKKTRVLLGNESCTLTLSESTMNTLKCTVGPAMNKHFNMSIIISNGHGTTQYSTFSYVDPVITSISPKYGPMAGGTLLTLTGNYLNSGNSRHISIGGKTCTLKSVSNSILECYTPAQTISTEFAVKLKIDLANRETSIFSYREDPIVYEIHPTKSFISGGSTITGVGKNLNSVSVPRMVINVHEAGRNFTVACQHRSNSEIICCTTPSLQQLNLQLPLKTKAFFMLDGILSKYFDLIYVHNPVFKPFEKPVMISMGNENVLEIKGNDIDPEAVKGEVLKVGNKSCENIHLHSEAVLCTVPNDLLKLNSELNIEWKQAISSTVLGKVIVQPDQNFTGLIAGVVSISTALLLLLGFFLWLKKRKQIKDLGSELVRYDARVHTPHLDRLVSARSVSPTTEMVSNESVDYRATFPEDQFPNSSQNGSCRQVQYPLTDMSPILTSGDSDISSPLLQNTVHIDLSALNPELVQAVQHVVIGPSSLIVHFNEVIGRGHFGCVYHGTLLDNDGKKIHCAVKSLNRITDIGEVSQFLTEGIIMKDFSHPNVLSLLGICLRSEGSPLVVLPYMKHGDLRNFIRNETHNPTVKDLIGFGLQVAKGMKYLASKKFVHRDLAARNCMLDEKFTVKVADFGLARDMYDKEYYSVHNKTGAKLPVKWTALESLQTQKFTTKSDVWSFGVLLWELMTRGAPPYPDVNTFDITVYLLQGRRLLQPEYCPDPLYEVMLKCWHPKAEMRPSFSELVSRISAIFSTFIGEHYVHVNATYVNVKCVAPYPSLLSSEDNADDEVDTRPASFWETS
How it was run: as §1

[12] = molecular target: T5, MLK2 (Homo sapiens, UniProt Q02779)
T5 construct: gene MAP3K10
How it was run: as §1

[13] = molecular target: MYLK2 (Homo sapiens, UniProt Q9H1R3)
How it was run: as §1

[14] = molecular target: T6, OSR1 (Homo sapiens, UniProt O95747)
T6 construct: gene OXSR1
How it was run: as §1

[15] = molecular target: PIK3CA(E545A) (Homo sapiens, UniProt P42336, E545A)
How it was run: as §1

[16] = molecular target: PIM2 (Homo sapiens, UniProt Q9P1W9)
How it was run: as §1

[17] = molecular target: T7, PKAC-alpha (Homo sapiens, UniProt P17612)
T7 construct: gene PRKACA
How it was run: as §1

[18] = molecular target: ROCK2 (Homo sapiens, UniProt O75116)
Chain of ROCK2 (O75116 whole entry): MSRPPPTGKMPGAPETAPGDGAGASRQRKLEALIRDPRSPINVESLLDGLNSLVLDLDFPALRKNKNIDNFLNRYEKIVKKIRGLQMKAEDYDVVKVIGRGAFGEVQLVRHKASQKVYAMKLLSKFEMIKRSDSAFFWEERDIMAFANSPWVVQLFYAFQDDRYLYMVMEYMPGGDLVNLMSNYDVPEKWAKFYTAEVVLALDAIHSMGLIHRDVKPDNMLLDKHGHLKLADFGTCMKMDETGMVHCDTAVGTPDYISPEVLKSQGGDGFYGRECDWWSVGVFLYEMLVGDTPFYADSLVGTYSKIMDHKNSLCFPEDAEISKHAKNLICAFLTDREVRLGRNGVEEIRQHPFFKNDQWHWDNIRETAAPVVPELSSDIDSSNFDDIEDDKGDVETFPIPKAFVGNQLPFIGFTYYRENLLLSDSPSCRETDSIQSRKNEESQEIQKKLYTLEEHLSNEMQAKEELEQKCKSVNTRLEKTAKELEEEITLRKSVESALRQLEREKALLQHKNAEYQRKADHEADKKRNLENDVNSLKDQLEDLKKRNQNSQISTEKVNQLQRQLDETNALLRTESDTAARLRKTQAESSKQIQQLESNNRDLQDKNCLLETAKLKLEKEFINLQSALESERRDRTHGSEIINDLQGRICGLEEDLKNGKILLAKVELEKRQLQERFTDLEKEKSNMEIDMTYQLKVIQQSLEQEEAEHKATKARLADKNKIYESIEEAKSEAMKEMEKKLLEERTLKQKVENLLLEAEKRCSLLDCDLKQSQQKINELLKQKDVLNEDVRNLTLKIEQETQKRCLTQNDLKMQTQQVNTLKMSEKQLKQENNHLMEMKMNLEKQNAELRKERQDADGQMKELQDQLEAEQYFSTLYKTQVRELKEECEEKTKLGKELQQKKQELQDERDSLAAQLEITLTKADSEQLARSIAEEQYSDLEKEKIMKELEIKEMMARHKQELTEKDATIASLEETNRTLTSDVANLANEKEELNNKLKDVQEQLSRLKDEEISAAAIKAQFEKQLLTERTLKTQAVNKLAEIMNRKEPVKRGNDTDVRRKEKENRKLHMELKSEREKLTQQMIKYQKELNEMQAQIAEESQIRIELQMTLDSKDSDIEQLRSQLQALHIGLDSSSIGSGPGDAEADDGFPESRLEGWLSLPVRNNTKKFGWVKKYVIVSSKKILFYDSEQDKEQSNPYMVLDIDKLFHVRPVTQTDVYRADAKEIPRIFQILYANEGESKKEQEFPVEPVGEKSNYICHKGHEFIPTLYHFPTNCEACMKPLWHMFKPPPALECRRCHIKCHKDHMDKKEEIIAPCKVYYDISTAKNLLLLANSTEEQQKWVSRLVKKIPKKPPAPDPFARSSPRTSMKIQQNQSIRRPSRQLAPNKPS
How it was run: as §1

[19] = molecular target: T8, RPS6KA5(Kin.Dom.2-C-terminal) (Homo sapiens, UniProt O75582)
T8 construct: Kin.Dom.2-C-terminal
How it was run: as §1

[20] = molecular target: SRPK2 (Homo sapiens, UniProt P78362)
Chain of SRPK2 (P78362 whole entry): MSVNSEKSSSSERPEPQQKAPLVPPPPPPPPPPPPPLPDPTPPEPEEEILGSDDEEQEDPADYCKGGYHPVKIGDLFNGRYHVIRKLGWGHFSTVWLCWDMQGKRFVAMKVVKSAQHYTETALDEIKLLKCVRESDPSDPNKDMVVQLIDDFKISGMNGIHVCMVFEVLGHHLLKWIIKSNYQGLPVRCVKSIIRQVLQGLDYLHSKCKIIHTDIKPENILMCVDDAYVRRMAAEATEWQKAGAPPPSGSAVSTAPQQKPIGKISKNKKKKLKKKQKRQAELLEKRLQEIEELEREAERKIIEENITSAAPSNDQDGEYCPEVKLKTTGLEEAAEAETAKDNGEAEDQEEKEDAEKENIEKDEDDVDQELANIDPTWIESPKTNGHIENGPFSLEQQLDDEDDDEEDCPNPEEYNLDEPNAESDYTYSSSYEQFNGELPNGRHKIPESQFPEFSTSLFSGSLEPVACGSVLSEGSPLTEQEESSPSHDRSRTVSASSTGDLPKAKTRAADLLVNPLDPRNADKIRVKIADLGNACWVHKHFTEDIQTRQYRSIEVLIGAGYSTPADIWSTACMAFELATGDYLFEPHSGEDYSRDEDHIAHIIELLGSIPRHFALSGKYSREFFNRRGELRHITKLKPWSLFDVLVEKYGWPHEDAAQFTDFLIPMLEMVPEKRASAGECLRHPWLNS
How it was run: as §1

[21] = molecular target: TEC (Homo sapiens, UniProt P42680)
How it was run: as §1

## C=C(C)[C@H]1CC=C(C)C(=O)C1 [S-carvone]
[1]
  remaining binding at 100 µM: 100%
[2]
  remaining binding at 100 µM: 86%
[3]
  remaining binding at 100 µM: 81%
[4]
  remaining binding at 100 µM: 92%
[5]
  remaining binding at 100 µM: 91%
[6]
  remaining binding at 100 µM: 72%
[7]
  remaining binding at 100 µM: 81%
[8]
  remaining binding at 100 µM: 58%
[9]
  remaining binding at 100 µM: 71%
[10]
  remaining binding at 100 µM: 75%
[11]
  remaining binding at 100 µM: 73%
[12]
  remaining binding at 100 µM: 83%
[13]
  remaining binding at 100 µM: 100%
[14]
  remaining binding at 100 µM: 78%
[15]
  remaining binding at 100 µM: 70%
[16]
  remaining binding at 100 µM: 86%
[17]
  remaining binding at 100 µM: 85%
[18]
  remaining binding at 100 µM: 66%
[19]
  remaining binding at 100 µM: 85%
[20]
  remaining binding at 100 µM: 99%
[21]
  remaining binding at 100 µM: 96%
